For 1 compound, Kd results are on record in PMC10699586 (Journal of molecular biology, 2023).

Where a name gives a salt, the structure may show the parent alone.

This experiment deals with T1, dysferlin C2A domain (dysf C2A) (Homo sapiens, UniProt O75923).
T1 sequence (O75923 1-129): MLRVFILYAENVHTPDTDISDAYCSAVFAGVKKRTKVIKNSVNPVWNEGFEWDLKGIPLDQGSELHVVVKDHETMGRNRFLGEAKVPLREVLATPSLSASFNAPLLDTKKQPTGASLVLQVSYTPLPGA
The experiment in a line: […]-TROSY NMR titration, single-site fast-exchange fit. Type of experiment: binding.

Broadly, the Kd is a measure of binding affinity in units of concentration. As for `O=P(O)(O)O[C@@H]1[C@H](O)[C@H](O)[C@@H](OP(=O)(O)O)[C@H](OP(=O)(O)O)[C@H]1O` [IP3, D-myo-Inositol 1,4,5-tris-phosphate trisodium salt], the Kd lay in the range of 12 to 15 µM.
